Results on three molecules are retold here after US20170233491A1 (Merrimack Pharmaceuticals, Inc., priority 2016, published 2017).

The subject of series [1] is HRG mRNA expression in CFPAC-1 cells. Briefly: HRG mRNA expression in CFPAC-1 cells after chemotherapy treatment. Format: cell-based. The following applies: FIG. 3. How it is done:
HRG mRNA expression was quantified after 24 h treatment with 1 mM of gemcitabine or 0.1 mM of paclitaxel, and normalized to housekeeping gene expression. “Vehicle”=drug-free vehicle control; “Gem”=gemcitabine treated; “Pac”=paclitaxel treated.

The conditions of series [2]: Phase 1 study; cited from earlier work.
For series [3], the target named is receptor complexes containing IGF-1R and ErbB3 (Homo sapiens, UniProt P08069+P21860). The following applies: including heterodimers with insulin receptor and with ErbB2; cited from earlier work.
For series [4], the system named is IGF-1R and ErbB3 signaling. As to conditions: background description; cited from earlier work.
The subject of series [5] is preclinical models of pancreatic cancer. Briefly: preclinical models of pancreatic cancer, combination with nab-paclitaxel and gemcitabine. As to conditions: KRAS mutant pancreatic cancer models. Format: in vivo.
Series [6] relates to IGF-1R and ErbB3 signaling. Kind of series: growth factor-induced (IGF-1, heregulin) signaling in pancreatic cancer models. As to conditions: preclinical research. It is filed as cell-based.
Another series deals with pancreatic cancer models. Briefly: IGF-1- and HRG-mediated insensitivity to gemcitabine or paclitaxel. It is filed as cell-based. The following applies: preclinical research.
Series [7] concerns preclinical models of pancreatic cancer. The following applies: combined with nab-paclitaxel and gemcitabine; cited from earlier work.

Structures can show the parent of a compound that is named as a salt.

Chain of receptor complexes containing IGF-1R and ErbB3 (P08069 31-736 limits assumed): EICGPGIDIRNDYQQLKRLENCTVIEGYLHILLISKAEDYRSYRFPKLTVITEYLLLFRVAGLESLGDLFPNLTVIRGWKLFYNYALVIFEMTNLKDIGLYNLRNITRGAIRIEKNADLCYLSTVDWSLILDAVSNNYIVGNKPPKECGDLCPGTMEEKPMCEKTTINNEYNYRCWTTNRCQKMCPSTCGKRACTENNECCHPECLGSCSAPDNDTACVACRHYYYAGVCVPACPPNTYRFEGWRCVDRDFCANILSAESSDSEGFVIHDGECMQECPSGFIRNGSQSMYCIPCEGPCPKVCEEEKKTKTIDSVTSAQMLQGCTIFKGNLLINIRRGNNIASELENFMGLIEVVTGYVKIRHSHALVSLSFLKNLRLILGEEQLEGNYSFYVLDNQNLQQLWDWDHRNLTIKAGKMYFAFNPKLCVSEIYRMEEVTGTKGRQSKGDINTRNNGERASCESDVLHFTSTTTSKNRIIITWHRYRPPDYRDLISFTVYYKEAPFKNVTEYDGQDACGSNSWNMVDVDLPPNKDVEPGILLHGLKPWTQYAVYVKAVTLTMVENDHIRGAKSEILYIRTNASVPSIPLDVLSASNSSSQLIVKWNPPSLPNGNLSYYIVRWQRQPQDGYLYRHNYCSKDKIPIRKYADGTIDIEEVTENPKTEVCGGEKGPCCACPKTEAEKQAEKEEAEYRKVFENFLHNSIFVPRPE
Chain of receptor complexes containing IGF-1R and ErbB3 (P08069 741-1367 limits assumed): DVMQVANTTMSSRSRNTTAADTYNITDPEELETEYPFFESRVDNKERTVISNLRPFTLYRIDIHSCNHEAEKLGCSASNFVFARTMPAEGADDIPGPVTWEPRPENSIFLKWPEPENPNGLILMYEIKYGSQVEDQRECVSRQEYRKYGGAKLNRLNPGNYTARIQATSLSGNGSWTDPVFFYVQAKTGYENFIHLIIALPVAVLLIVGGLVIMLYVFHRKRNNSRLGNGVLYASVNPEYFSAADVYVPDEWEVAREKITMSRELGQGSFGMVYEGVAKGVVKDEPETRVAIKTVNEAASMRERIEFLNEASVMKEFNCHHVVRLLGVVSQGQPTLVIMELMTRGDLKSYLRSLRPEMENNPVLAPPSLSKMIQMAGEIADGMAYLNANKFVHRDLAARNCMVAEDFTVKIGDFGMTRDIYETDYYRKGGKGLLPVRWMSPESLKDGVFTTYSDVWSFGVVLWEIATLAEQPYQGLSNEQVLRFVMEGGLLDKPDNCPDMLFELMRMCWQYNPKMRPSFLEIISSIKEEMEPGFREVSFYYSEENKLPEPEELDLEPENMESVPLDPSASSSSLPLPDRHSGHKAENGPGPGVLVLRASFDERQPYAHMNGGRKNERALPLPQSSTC
Chain of receptor complexes containing IGF-1R and ErbB3 (P21860 20-1342): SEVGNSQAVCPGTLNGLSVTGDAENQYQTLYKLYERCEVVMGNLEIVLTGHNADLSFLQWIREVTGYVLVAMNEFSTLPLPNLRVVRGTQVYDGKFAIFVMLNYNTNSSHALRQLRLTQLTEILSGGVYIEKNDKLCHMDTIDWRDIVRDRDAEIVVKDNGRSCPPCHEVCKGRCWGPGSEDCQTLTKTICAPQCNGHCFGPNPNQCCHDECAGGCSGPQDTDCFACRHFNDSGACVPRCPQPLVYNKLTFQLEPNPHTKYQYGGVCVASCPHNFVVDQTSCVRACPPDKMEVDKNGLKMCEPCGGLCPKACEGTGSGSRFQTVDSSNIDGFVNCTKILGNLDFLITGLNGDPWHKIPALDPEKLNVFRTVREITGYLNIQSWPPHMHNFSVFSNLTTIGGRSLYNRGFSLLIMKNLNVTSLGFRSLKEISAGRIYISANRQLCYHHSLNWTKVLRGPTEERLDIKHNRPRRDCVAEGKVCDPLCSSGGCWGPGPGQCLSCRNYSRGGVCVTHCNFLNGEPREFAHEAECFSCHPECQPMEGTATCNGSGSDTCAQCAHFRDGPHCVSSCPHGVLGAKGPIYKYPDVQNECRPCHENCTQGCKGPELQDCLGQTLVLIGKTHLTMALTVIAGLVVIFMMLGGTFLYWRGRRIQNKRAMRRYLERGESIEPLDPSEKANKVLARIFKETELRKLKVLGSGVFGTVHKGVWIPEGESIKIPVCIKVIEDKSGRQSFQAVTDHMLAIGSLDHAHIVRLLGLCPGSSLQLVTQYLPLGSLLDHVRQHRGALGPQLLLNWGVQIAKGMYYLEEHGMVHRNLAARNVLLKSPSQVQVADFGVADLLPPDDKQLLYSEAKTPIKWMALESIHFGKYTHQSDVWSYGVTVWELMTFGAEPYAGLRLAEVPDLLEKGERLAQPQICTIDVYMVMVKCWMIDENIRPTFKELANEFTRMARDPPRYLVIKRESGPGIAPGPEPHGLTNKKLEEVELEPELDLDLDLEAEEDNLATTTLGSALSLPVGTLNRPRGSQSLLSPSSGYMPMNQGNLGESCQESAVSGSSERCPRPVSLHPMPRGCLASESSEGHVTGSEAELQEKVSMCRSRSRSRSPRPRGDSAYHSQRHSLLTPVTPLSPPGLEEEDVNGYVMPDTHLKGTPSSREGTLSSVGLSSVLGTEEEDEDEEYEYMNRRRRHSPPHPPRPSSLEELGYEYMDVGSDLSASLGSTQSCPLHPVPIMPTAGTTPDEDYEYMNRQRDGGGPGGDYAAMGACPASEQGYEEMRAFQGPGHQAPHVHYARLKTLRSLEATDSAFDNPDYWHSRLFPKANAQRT

As for `Nc1ccn([C@@H]2O[C@H](CO)[C@@H](O)C2(F)F)c(=O)n1` [gemcitabine, 2′-deoxy-2′,2′-difluorocytidine monohydrochloride (-isomer)], the “HRG mRNA expression, normalized to housekeeping gene expression” value in series [1] (24 h treatment with 1 mM of gemcitabine) is “increases HRG mRNA expression”.
For the molecule “Istiratumab: recombinant fully human bispecific tetravalent antibody directed at IGF-1R and ErbB3; light chain SEQ ID NO: 1, heavy chain SEQ ID NO: 2”, in series [2], the safety and tolerability result is “safe and tolerable”. In series [3], the “degradation of receptor complexes containing IGF-1R and ErbB3” value is “induces degradation of receptor complexes containing IGF-1R and ErbB3”. Moreover, the “IGF-1 and heregulin-induced signaling” value in series [4] is “co-blocks IGF-1 and heregulin-induced signaling”. Besides, in series [5], the “potentiation of anti-tumor activity of nab-paclitaxel/gemcitabine” value is recorded as “potentiates the anti-tumor activity of nab-paclitaxel/gemcitabine”. Moreover, the “growth factor-induced survival signaling” value in series [6] is on record as “inhibits growth factor-induced survival signaling”. Further, in the series on pancreatic cancer models, the “reversal of IGF-1- and HRG-mediated insensitivity to gemcitabine or paclitaxel” value was “reverses IGF-1- and HRG-mediated insensitivity to gemcitabine or paclitaxel”. Also, in series [7], the tumor regression result was “significant tumor regression, including durable complete responses”.
Consider `CC(=O)O[C@H]1C(=O)[C@@]2(C)[C@H]([C@H](OC(=O)c3ccccc3)[C@]3(O)C[C@H](OC(=O)[C@H](O)[C@@H](NC(=O)c4ccccc4)c4ccccc4)C(C)=C1C3(C)C)[C@]1(OC(C)=O)CO[C@@H]1C[C@@H]2O` [paclitaxel], for which the “HRG mRNA expression, normalized to housekeeping gene expression” value in series [1] (24 h treatment with 0.1 mM of paclitaxel) is recorded as “increases HRG mRNA expression”.
